According to patent US20050026952A1, “Nicotinamide derivatives useful as PDE4 inhibitors” (Pfizer Inc, priority 2003, published 2005):

Tested on: TNFα release from human peripheral blood mononuclear cells
Experiment: Inhibition of LPS-stimulated TNFα release from human peripheral blood mononuclear cells (TNFα screen)
Assay type: cell-based
Details: human PBMC, LPS stimulation, 18 hours incubation, TNFα in supernatant by ELISA
Description: Venous blood is collected from healthy volunteers and the mononuclear cells purified by centrifugation through Histopaque (Ficoll) cushions. TNFα production from these cells is stimulated by addition of lipopolysaccharide. After 18 hours incubation in the presence of LPS, the cell supernatant is removed and the concentration of TNFα in the supernatant determined by ELISA. Addition of PDE4 inhibitors reduces the amount of TNFα produced. An IC50 is determined which is equal to the concentration of compound that gives 50% inhibition of TNFα production as compared to the LPS stimulated control wells.

Row | SMILES | IC50
1 | CSc1cccc(Oc2ncc(F)cc2C(=O)N[C@H]2CC[C@@H](NS(=O)(=O)c3cccc4cccnc34)CC2)c1 [Example 11, Syn-5-Fluoro-2-(3-methylsulphanyl-phenoxy)-N-[4-(quinoline-8-sulphonylamino)-cyclohexyl]-nicotinamide] | 70 pM
2 | CSc1cccc(Oc2ncc(F)cc2C(=O)N[C@H]2CC[C@@H](NS(=O)(=O)c3c(O)ccc4nsnc34)CC2)c1 [Example 14] | 1000 pM
3 | CSc1cccc(Oc2ncc(F)cc2C(=O)N[C@H]2CC[C@@H](NS(=O)(=O)c3ccc(C)cc3O)CC2)c1 [Example 15, Syn-5-Fluoro-N-[4-(2-hydroxy-4-methyl-benzenesulphonylamino)-cyclohexyl]-2-(3-methylsulphanyl-phenoxy)-nicotinamide] | 2000 pM
4 | CSc1cc(Oc2ncc(F)cc2C(=O)N[C@H]2CC[C@@H](NS(=O)(=O)c3cc(C)ccc3O)CC2)ccc1F [Example 16, Syn-5-Fluoro-N-[4-(2-hydroxy-5-methyl-benzenesulphonylamino)-cyclohexyl]-2-(4-fluoro-3-methylsulphanyl-Phenoxy)-nicotinamide] | 3500 pM

Results, then the molecule that gave them:

Row | IC50 | SMILES
5 | 300 pM | CSc1cccc(Oc2ncc(F)cc2C(=O)N[C@H]2CC[C@@H](NS(=O)(=O)c3cccc4nonc34)CC2)c1 [Example 12, Syn-N-[4-(Benzo[1,2,5]oxadiazole-4-sulphonylamino)-cyclohexyl]-5-fluoro-2-(3-methylsulphanyl-phenoxy)-nicotinamide]
6 | 90 pM | CSc1cccc(Oc2ncc(F)cc2C(=O)N[C@H]2CC[C@@H](NS(=O)(=O)c3cccc4nsnc34)CC2)c1 [Example 13, Syn-N-[4-(Benzo[1,2,5]thiadiazole-4-sulphonylamino)-cyclohexyl]-5-fluoro-2-(3-methylsulphanyl-phenoxy)-nicotinamide]
